These results are taken from BindingDB's records for patent US10544130 (Merck Sharp & Dohme Corp., 2020).

The target of test [1] is Metallo-beta-lactamase VIM-1 (Pseudomonas aeruginosa, UniProt A0A0F7KYQ8).
For test [2], the target named is Metallo-beta-lactamase type 2 (Klebsiella pneumoniae, UniProt C7C422).
Sequence of Metallo-beta-lactamase type 2 (C7C422 whole entry): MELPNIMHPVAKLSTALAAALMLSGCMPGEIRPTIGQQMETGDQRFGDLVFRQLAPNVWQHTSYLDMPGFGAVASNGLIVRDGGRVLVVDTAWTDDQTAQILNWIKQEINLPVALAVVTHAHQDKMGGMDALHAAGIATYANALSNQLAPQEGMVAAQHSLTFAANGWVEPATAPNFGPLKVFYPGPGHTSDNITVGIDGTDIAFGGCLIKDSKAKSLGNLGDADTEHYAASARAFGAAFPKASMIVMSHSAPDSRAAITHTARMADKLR

Broadly, the IC50 is the concentration that gives 50% inhibition. Read a low IC50 as greater potency in that assay. Consider `N#Cc1cccc(B(O)O)c1N` [US10544130, Example 11], for which the IC50 turned out to be 0.05 nM in test [1] and 0.019 nM in test [2].

Turning to `OB(O)c1cccc2[nH]cnc12` [US10544130, Example 12], half-maximal inhibition in test [1] (IC50) was put at 0.102 nM.

Compound `COc1ccc(CN(Cc2ccc(OC)cc2)S(=O)(=O)c2c(S(=O)(=O)N[C@@H]3CCN(C(=O)OC(C)(C)C)C3)ccc(I)c2-c2nnn(Cc3ccc(OC)cc3)n2)cc1` [US10544130, Example 72] came in with an IC50 in test [2] of 0.02 nM.

Consider `COc1ccc(CN(Cc2ccc(OC)cc2)S(=O)(=O)c2c(S(=O)(=O)NC[C@H](CO)NC(=O)OCc3ccccc3)ccc(I)c2-c2nnn(Cc3ccc(OC)cc3)n2)cc1` [US10544130, Example 80], for which inhibition in test [1] was half-maximal at 0.158 nM (IC50).

Consider `COc1ccc(CN(Cc2ccc(OC)cc2)S(=O)(=O)c2c(S(=O)(=O)NC[C@@H](CNC(=O)OC(C)(C)C)NC(=O)OC(C)(C)C)ccc(I)c2-c2nnn(Cc3ccc(OC)cc3)n2)cc1` [US10544130, Example 81], for which, in test [1], the IC50 was 0.135 nM.

As to `COc1ccc(CN(Cc2ccc(OC)cc2)S(=O)(=O)c2c(S(=O)(=O)N[C@H]3CN(C(=O)OC(C)(C)C)C[C@@H]3NC(=O)OC(C)(C)C)ccc(I)c2-c2nnn(Cc3ccc(OC)cc3)n2)cc1` [US10544130, Example 82], in test [2], the IC50 was 0.049 nM.

For `Nc1ncccc1-c1ccc(S(=O)(=O)N[C@H]2C[C@@H]2N)c(S(N)(=O)=O)c1-c1nn[nH]n1` [US10544130, Example 216], the IC50 amounted to 0.269 nM in test [1] and 0.237 nM in test [2].

`C[N+]1(CCN)CC[C@@H](NS(=O)(=O)c2ccc(-c3cccc4[nH]c(N)nc34)c(-c3nn[nH]n3)c2S(N)(=O)=O)C1` (stereo not given in full) [US10544130, Example 248] registered an IC50 in test [2] of 0.011 nM.
